Patent publication US20240262795A1, “PYRAZINE COMPOUNDS AS INHIBITORS OF FLT3” (Biomea Fusion, Inc., priority 2021, published 2024)
Positions count from the first letter of the chain named.

Key:
[1] = molecular target: T1, Ba/F3 cell lines stably expressing human FLT3-ITD-D835Y (Homo sapiens, UniProt P36888, D835Y, cells depend on it, form not given); assay: FLT3 mutant assay, cell viability, Ba/F3-FLT3-ITD-D835Y; assay type: cell-based, mouse; conditions: IC50 (3 days), CellTiter-Glo; read-out: Ba/F3-FLT3-ITD-D835Y Relative IC50
T1 construct: Ba/F3-FLT3-ITD-D835Y Relative IC50
T1 sequence (P36888 1-993 D835Y): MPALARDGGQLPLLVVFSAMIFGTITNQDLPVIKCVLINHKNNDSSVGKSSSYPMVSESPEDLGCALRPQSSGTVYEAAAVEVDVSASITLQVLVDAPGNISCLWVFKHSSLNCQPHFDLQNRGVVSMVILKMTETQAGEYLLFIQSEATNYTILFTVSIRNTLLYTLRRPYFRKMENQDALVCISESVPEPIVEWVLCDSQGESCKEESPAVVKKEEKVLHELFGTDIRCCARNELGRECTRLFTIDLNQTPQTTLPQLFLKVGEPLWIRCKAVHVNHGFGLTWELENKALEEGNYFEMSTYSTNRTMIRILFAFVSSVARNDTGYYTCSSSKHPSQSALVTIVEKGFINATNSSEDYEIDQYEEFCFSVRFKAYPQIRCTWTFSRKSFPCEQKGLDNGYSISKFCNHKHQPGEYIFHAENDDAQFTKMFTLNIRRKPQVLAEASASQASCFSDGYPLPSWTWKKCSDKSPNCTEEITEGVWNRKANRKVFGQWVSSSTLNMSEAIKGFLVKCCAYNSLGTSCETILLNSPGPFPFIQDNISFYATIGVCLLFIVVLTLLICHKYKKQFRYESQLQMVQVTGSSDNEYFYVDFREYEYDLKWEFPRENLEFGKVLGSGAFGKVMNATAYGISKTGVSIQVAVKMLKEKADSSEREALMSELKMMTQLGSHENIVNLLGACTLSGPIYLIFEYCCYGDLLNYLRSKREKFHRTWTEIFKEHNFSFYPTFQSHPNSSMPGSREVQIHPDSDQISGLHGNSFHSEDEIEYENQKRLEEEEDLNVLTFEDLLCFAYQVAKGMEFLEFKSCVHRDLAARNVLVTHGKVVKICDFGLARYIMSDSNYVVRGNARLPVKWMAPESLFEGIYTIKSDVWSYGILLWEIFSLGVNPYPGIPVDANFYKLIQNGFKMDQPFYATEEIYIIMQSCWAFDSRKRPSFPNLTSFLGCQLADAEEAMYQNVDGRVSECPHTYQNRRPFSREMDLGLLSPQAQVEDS
Procedure: (§1) Activity of compounds on FLT3 activating mutations were assessed using Ba/F3 cell lines (mouse pro-B cell line) stably expressing human FLT3-ITD, FLT3-ITD-D835Y or FLT3-ITD-F691L. […] The supernatant collected were concentrated with PEG8000 and used to infect Ba/F3 cells at 1-5 MOI in serum-free media with polybrene. Infected Ba/F3 cells were selected in presence of puromycin, and surviving cells verified by sequencing and/or protein detection assay. Constitutive expression of the activating kinase transforms the Ba/F3 cells into IL-3-independent growth allowing them to be cultured in the absence of IL-3. […] For use in compound testing, cells in exponential growth phase were harvested, counted, and resuspended at the required cell density. Cell viability assays were performed in 96-well assay plates and 90 μL of cell suspension seeded per well. Serial dilutions of the test compounds and assay controls and were freshly prepared for the assay. Nine-point 3× serial dilutions were prepared in 100% DMSO (400× stock) and subsequently diluted in cell culture media to obtain 10× stocks. Ten microliters of the 10× stock serial dilutions were added to the appropriate wells (triplicate wells per condition) in the assay plate. […] Assay plates were incubated for 3 days in at 37° C. in a humidified incubator with 5% CO2.
(§2) Inhibition rate (IR) of the tested compounds was determined by the following formula: IR (%)=(1−(RLU compound−RLU blank)/(RLU control−RLU blank))*100%. The inhibitions of different dose of compound were calculated in Excel file, and the dose responses were analysed using GraphPad Prism to evaluate related parameters, such as Bottom, Top and IC50. For the IC50 analysis by GraphPad Prism, the equation below was used to fit curve: Y=Bottom+(Top−Bottom)/(1+10^((LogIC50−X)*HillSlope))

[2] = molecular target: T2, Ba/F3 cell lines stably expressing human FLT3-ITD-F691L (Homo sapiens, UniProt P36888, F691L, cells depend on it, form not given); assay: FLT3 mutant assay, cell viability, Ba/F3-FLT3-ITD-F691L; assay type: cell-based, mouse; conditions: IC50 (3 days), CellTiter-Glo; read-out: Ba/F3-FLT3-ITD-F691L Relative IC50
T2 construct: Ba/F3-FLT3-ITD-F691L Relative IC50
T2 sequence (P36888 1-993 F691L): T1 sequence (P36888 1-993 D835Y) with F691L, Y835D
Procedure: as §1, §2

SMILES	GI50 [1] [nM]	GI50 [2] [nM]
CCc1nc(C(N)=O)c(Nc2cccc([C@@H](C)CNC(=O)CN(C)C(=O)/C=C/CN3CCC3)c2)nc1N(C)CC [Compound 518, (R,E)-3-((3-(1-(2-(4-(azetidin-1-yl)-N-methylbut-2-enamido)acetamido)propan-2-yl)phenyl)amino)-6-ethyl-5-(ethyl(methyl)amino)pyrazine-2-carboxamide]	10 to 100	1 to 10
CCOc1nc(Nc2cccc(CCNC(=O)CN(C)C(=O)/C=C/CN3CCC3)c2)c(C(N)=O)nc1CC [Compound 602, (E)-3-((3-(2-(2-(4-(azetidin-1-yl)-N-methylbut-2-enamido)acetamido)ethyl)phenyl)amino)-5-ethoxy-6-ethylpyrazine-2-carboxamide]	10 to 100	1 to 10
CCc1nc(C(N)=O)c(Nc2cccc(CCNC(=O)CN(C)C(=O)/C=C/CN3CCC3)c2)nc1OC(C)C [Compound 603, (E)-3-((3-(2-(2-(4-(azetidin-1-yl)-N-methylbut-2-enamido)acetamido)ethyl)phenyl)amino)-6-ethyl-5-isopropoxypyrazine-2-carboxamide]	10 to 100	10 to 100
CCc1nc(C(N)=O)c(Nc2ccnc(CCNC(=O)[C@H](C)N(C)C(=O)/C=C/CN(C)C)c2)nc1N(C)C(C)C [Compound 605, (S, E)-3-((2-(2-(2-(4-(dimethylamino)-N-methylbut-2-enamido)propanamido)ethyl)pyridin-4-yl)amino)-6-ethyl-5-(isopropyl (methyl)amino) pyrazine-2-carboxamide]	10 to 100	10 to 100
CCc1nc(C(N)=O)c(Nc2ccc(N3CCC(N4CCN(C)CC4)CC3)c(OC)c2)nc1NC1CCOCC1 [Gilteritinib, gilteritinib, reference compound]	10 to 100	10 to 100
